Measured values taken from PMC5078989, “Targeted inhibition of the COP9 signalosome for treatment of cancer” (Nature Communications, 2016).

Test system: panel of cancer cell lines
Test: Cell viability (CellTiter-Glo) dose-response across cancer cell line panel;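 also: after 72 h compound incubation with CellTiter-Glo ATP readout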
Assay type: cell-based, human
Conditions: Homo sapiens
From the text: Next, we explored the effect of CSN5 inhibition on the viability of cancer cells. To obtain a comprehensive picture, we generated dose–response curves with a CSN5 inhibitor across more than 500 cancer cell lines in a previously described standardized setting[47] (Supplementary Data 1).
A standardized CellTiter-Glo Assay (Promega #G7570) based on the quantification of ATP was applied according to the manufacturer's protocol to measure the amount of viable cells in culture. In brief, cells were seeded into 384-well plates at optimal density for each cell line. After 4 h, compounds were added at different concentrations in growth medium and incubated for another 72 h in a humidifying chamber at 37 °C and 5% CO2. […] EC50 values were calculated from the plot of percentage of inhibition versus inhibitor concentration using the nonlinear regression analysis software Origin 7.5SR6 (OriginLab Corp.).

COCc1ccccc1NCc1ccc([C@@H]2[C@H](O)CCCc3cncn32)c(-c2ccccc2Cl)c1 [CSN5i-2e, (5R,6R)-5-(2′-chloro-5-(((2-(methoxymethyl)phenyl)amino)methyl)-[1,1′-biphenyl]-2-yl)-6,7,8,9-tetrahydro-5H-imidazo[1,5-a]azepin-6-ol]
EC50 (HCC-1833 cells): 10.6 µM | EC50 (HCT-15, HCT-15 cells): 6.96 µM | EC50 (HD-MY-Z cells): 3.49 µM | EC50 (HEC-50B, HEC-50B cells): 13 µM | EC50 (HEC-108 cells): 14.7 µM | EC50 (HEC-151 cells): 11.1 µM | EC50 (HEC-265 cells): 14.2 µM | EC50 (HEL 92.1.7, HEL 92.1.7 cells): 7.27 µM | EC50 (HEL, HEL cells): 6.98 µM | EC50 (HEY A8, Hey-A8 cells): 12.9 µM | EC50 (HL-60, HL-60 cells): 15.7 µM | EC50 (HLC-1 cells): 11.5 µM | EC50 (HLE, HLE cells): 15.5 µM | EC50 (HLF, HLF cells): > 30 µM | EC50 (HMC-1-8 cells): 15.3 µM | EC50 (HPBALL, HPB-ALL cells): 14.1 µM | EC50 (HRT-18, HRT-18 cells): 9.14 µM | EC50 (HSC-2, HSC-2 cells): 23.9 µM | EC50 (HSC-3, HSC-3 cells): 12.7 µM | EC50 (HSC-4, HSC-4 cells): 10 µM | EC50 (HT-29, HT-29 cells): 12.4 µM | EC50 (Hep 3B2.1-7 cells): 11.1 µM | EC50 (Hep3B, Hep3B cells): 14.2 µM | EC50 (Hs 294T, Hs 294T cells): 11.7 µM | EC50 (Hs766T, Hs 766T cells): 24.2 µM | EC50 (Hs 852.T cells): 15.4 µM | EC50 (Hs 936.T cells): 17.2 µM | EC50 (Hs 944.T cells): 15.3 µM | EC50 (HuG1-N cells): 10.6 µM | EC50 (HuP-T3, HUP-T3 cells): 23.8 µM | EC50 (HuP-T4, HUP-T4 cells): 11 µM | EC50 (Huh-7, HuH-7 cells): 9.02 µM | EC50 (IGR-37, IGR-37 cells): 17.6 µM | EC50 (IGR-39, IGR-39 cells): 10.6 µM | EC50 (IGROV-1, IGROV1 cells): 12.3 µM | EC50 (IPC-298, IPC-298 cells): 10.3 µM | EC50 (Ishikawa, Ishikawa cells): 9.64 µM | EC50 (J82, J82 cells): > 30 µM | EC50 (JHH7, JHH-7 cells): 16.4 µM | EC50 (JHH-4, JHH-4 cells): 16.2 µM | EC50 (JHOM-1 cells): 8.92 µM | EC50 (JHOS-2 cells): > 30 µM | EC50 (JHUEM-2 cells): 15.3 µM | EC50 (JIMT-1, JIMT-1 cells): 13.1 µM | EC50 (JVM-2, JVM-2 cells): 13 µM | EC50 (K029AX cells): 17 µM | EC50 (KARPAS-422, KARPAS-422 cells): 12.5 µM | EC50 (KATO III, KATO III cells): 9.94 µM | EC50 (KBM-7, KBM-7 cells): 8.38 µM | EC50 (KE-97, KE-97 cells): 7.93 µM | EC50 (KLE, KLE cells): 12.6 µM | EC50 (KMM-1, KMM-1 cells): 10.6 µM | EC50 (KMRC-1, KMRC-1 cells): 17.7 µM | EC50 (KMRC-20 cells): 18.5 µM | EC50 (KMS-11, KMS-11 cells): 28.6 µM | EC50 (KNS-62, KNS-62 cells): 15.4 µM | EC50 (KO52 cells): 18.3 µM | EC50 (KP-1N cells): 15 µM | EC50 (KS-1 cells): 15.6 µM | EC50 (KU-19-19, KU-19-19 cells): 16 µM | EC50 (KURAMOCHI cells): 10.6 µM | EC50 (KYSE-70, KYSE-70 cells): 10.4 µM | EC50 (KYSE-150, KYSE-150 cells): 10.7 µM | EC50 (KYSE-180, KYSE-180 cells): 14.1 µM | EC50 (KYSE-410, KYSE-410 cells): 15 µM | EC50 (Kasumi-3, Kasumi3 cells): 13 µM | EC50 (Kasumi-6 cells): 6.45 µM | EC50 (L3.3 cells): 20.2 µM | EC50 (L-363, L-363 cells): 9.54 µM | EC50 (L-428, L-428 cells): 11.8 µM | EC50 (LC-1F cells): 16.3 µM | EC50 (LCLC-103H, LCLC-103H cells): 8.84 µM | EC50 (LIM1899 cells): 10.3 µM | EC50 (LIM2099 cells): 11.4 µM | EC50 (LIM2405 cells): 9.94 µM | EC50 (LIM2550 cells): 6.3 µM | EC50 (LMSU cells): 7.62 µM | EC50 (LN-18, LN-18 cells): 13 µM | EC50 (LN-229, LN-229 cells): 8.07 µM | EC50 (LOU-NH91, LOU-NH91 cells): 11.2 µM | EC50 (LOX IMVI, LOX IMVI cells): 9.19 µM | EC50 (LP-1, LP-1 cells): 11.9 µM | EC50 (LS180, LS 180 cells): 10.5 µM | EC50 (LS-513, LS513 cells): 8.14 µM | EC50 (LUDLU-1, LUDLU-1 cells): > 30 µM | EC50 (Li-7, Li-7 cells): 23.7 µM | EC50 (Lu-65, LU65 cells): 12.5 µM | EC50 (Lu-99, LU99 cells): 9.78 µM | EC50 (M-07e, M-07e cells): 16 µM | EC50 (MCAS cells): 12.5 µM | EC50 (MCC14/2 cells): 9.96 µM | EC50 (MDA-MB-157, MDA-MB-157 cells): 14.7 µM | EC50 (MDA-MB-175-VII, MDA-MB-175-VII cells): 19.8 µM | EC50 (MDA-MB-231, MDA-MB-231 cells): 15.3 µM | EC50 (MDA-MB-415, MDA-MB-415 cells): 13.4 µM | EC50 (MDA-MB-435S, MDA-MB-435S cells): 12 µM | EC50 (MDA-MB-436, MDA-MB-436 cells): 10.1 µM | EC50 (MDA-MB-453, MDA-MB-453 cells): 6.48 µM | EC50 (MDA-MB-468, MDA-MB-468 cells): 10.7 µM | EC50 (MDST8, MDST8 cells): 11.2 µM | EC50 (ME-180, ME180 cells): 11.9 µM | EC50 (MEL-HO cells): 10.9 µM | EC50 (MEL-JUSO, MEL-JUSO cells): 18.1 µM | EC50 (MES-SA, MES-SA cells): 12.5 µM | EC50 (MFE-280, MFE-280 cells): 10.8 µM | EC50 (MFE-296, MFE-296 cells): 10.5 µM | EC50 (MFM-223, MFM223 cells): 17.2 µM | EC50 (MINO, Mino cells): 7.97 µM | EC50 (MKN-1, MKN1 cells): 9.59 µM | EC50 (MKN-45, MKN-45 cells): 26.8 µM | EC50 (ML-2, ML-2 cells): 6.14 µM | EC50 (MM127 cells): 6.45 µM | EC50 (MM138 cells): 10.4 µM | EC50 (MM253 cells): 26.5 µM | EC50 (MM370 cells): 23 µM | EC50 (MM383 cells): 11.2 µM | EC50 (MM386 cells): 25.5 µM | EC50 (MM415 cells): 13.3 µM | EC50 (MM426 cells): 24.4 µM | EC50 (MM466 cells): 24.5 µM | EC50 (MM473, MM473 cells): 10.4 µM | EC50 (MM485 cells): 11.2 µM | EC50 (MM537 cells): 14 µM | EC50 (MM576 cells): 15.8 µM | EC50 (MM603 cells): 9.82 µM | EC50 (MOG-G-CCM cells): 10.9 µM | EC50 (MOLM-13, MOLM-13 cells): 6.66 µM | EC50 (MOLP-8, MOLP-8 cells): 6.91 µM | EC50 (MOLT-16, MOLT-16 cells): 5.34 µM
